Results on one molecule are retold here after ChEMBL document CHEMBL5357082, “Identification and Optimization of Small Molecule Pyrazolopyrimidine TLR7 Agonists for Applications in Immuno-oncology” (ACS Med Chem Lett, 2024).

For orientation: clearance means the volume of plasma or blood freed of the substance per unit of time. Low values mean inefficient removal, high ones efficient removal. Broadly, the half-life is the time needed for the level to fall by half in the phase considered. For orientation: EC50 means the concentration needed to bring the measured effect to its halfway point. Low values mean a more potent agent, high ones a less potent agent. A word on the AUC(0-t): it is exposure summed from dosing to a finite time, without extrapolation to infinity. High values mean more exposure, low ones less exposure.

Data set [1] is described as follows: Metabolic stability in mouse liver microsomes assessed as compound remaining at 0.5 uM incubated for 10 mins in presence of NADPH by UV absorbance based assay. The settings on record: read-out: Stability. It counts as ADME, Microsome. In general terms: Liver microsomes are a subcellular fraction often used to study metabolism.
Data set [2] can be described thus: Drug concentration in nontumor bearing Balb/C mouse at 0.5 mg/kg measured after 5 mins. The class given is ADME, organism-based. The following applies: in vivo, read-out: Drug uptake.
Data set [3] is described as follows: Clearance in nontumor bearing Balb/C mouse at 0.5 mg/kg. The following applies: in vivo. The class given is ADME, organism-based.
A short description of data set [4]: Metabolic stability in human liver microsomes assessed as compound remaining at 0.5 uM incubated for 10 mins in presence of NADPH by UV absorbance based assay. It counts as ADME, Microsome. The following applies: read-out: Stability.
A short description of data set [5]: Half life in nontumor bearing Balb/C mouse at 0.5 mg/kg. It counts as ADME, organism-based. The settings on record: in vivo.
The next data set concerns the target T1, Toll-like receptor 8 (Homo sapiens, UniProt Q9NR97).
T1 sequence (Q9NR97 whole entry): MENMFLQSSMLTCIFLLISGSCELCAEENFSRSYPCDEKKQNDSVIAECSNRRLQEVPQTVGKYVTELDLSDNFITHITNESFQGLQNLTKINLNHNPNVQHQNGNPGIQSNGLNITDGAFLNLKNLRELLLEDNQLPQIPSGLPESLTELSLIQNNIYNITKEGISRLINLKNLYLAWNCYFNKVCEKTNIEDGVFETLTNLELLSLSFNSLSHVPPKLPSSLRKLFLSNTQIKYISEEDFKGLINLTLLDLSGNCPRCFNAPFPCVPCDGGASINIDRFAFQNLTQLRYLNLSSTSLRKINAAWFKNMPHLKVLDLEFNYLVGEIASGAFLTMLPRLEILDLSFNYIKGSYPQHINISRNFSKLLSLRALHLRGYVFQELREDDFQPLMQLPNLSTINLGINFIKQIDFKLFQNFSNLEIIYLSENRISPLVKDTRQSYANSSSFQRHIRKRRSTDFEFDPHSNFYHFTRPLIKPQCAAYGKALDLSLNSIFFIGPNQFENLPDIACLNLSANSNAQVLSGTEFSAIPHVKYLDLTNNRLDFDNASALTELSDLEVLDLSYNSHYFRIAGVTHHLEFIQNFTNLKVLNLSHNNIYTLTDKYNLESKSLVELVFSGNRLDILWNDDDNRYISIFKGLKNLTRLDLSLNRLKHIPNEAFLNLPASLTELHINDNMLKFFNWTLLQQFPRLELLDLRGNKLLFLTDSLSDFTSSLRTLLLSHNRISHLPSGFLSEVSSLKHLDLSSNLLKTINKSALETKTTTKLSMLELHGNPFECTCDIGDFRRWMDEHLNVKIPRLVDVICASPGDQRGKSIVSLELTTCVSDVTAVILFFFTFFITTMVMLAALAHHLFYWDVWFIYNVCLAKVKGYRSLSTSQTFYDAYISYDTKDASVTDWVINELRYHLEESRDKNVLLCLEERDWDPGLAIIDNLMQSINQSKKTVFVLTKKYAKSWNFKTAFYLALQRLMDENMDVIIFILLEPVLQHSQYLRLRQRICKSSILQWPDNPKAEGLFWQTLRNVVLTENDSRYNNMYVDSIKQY
Description: Agonist activity at human TLR8.

A short description of data set [6]: AUClast in nontumor bearing Balb/C mouse at 0.5 mg/kg. The settings on record: in vivo. On the set-up: dose 0.5 mg/kg. It counts as ADME, organism-based.

For the molecule `CCC[C@@H](CCO)Nc1nc(N)nc2cnn(Cc3ccc(CNC4CCOCC4)cc3OC)c12`, the remaining at 10 min, 0.5 µM in data set [1] amounted to 81%; in data set [4], 75%. Also, the concentration at 5 min in data set [2] amounted to 66 nM. This molecule yielded a clearance in data set [3] of 149 mL/min/kg. The same molecule had a half-life in data set [5] of 5.6 h. Besides, the EC50 at Toll-like receptor 8 is above 5 µM. Further, the exposure AUC(0-t) in data set [6] stood at 0.111 µM·h.
